In patent publication US12540922B2, “Quantitative shotgun proteome, lipidome, and metabolome analysis by direct infusion” (Wisconsin Alumni Research Foundation, priority 2021, dated 2026):

Tested on: 293T cells (wild type or PPTC7 knockout)
Experiment: MitoTox screen: DI-SPA proteome quantification of toxin-treated cells
Type: cell-based, human
Details: 6-hour compound treatments, DMEM or HPLM
Method: Wild type or PPTC7 knockout (KO) cells were grown in either standard or modified media, DMEM or HPLM (Cantor et al., Cell, 169, 258-272.e17 (2017)), respectively, and treated in triplicate with one of nine mitochondrial toxins or two controls for a total 132 samples. These conditions were chosen because of their known effects on metabolism and mitochondria, which were hypothesized to induce changes in proteins and thus provide a suitable testbed for DI-SPA. Again, a peptide discovery experiment (like FIG. 7) was first performed to identify peptides for subsequent targeted quantification experiments, in which 1,384 peptides were identified (peptide-level FDR=0.93%) from 451 proteins (protein-level FDR=2.8%). Next, a quantitative targeted DI-SPA assay was generated to expeditiously monitor the most intense peptide from each of the 451 proteins. This method was used to analyze all 132 samples, generating 132 proteotypes and requiring only 120 seconds of MS data collection per sample. A total of 341 out of 451 protein targets were quantified across all 132 samples in only 4.4 hours of total MS data acquisition, which corresponds to over 45,000 proteins quantified at a rate of nearly three proteins per second (FIG. 4, panel B).
MitoTox Experiment—Cell Culture. 293T cells were purchased from ATCC (#CRL-3216) and maintained in DMEM (4.5 g/L glucose, 4 mM glutamine, no pyruvate—Thermo #11965092) supplemented with 10% fetal bovine serum (FBS) and 1× penicillin/streptomycin (100 U/mL final [c]). Human Plasma-Like Medium (HPLM) was supplemented with 10% dialyzed FBS (Thermo #26400036) and 1× penicillin/streptomycin (100 U/mL final [c]). For heavy labeling, 293T cells were labeled using the DMEM-based SILAC protein quantitation kit (Thermo #A33972). Briefly, cells were grown for at least 5 passages SILAC-compatible DMEM supplemented with 10% dialyzed FBS, ^13C ^15N2 L-lysine-2HCl and ^13C6 ^15N4 L-arginine HCl, and 1× penicillin/streptomycin. SILAC labeling was confirmed through mass spectrometry analysis and ratios of light/heavy cells were titrated based on analysis of median ratios observed in the controls. All cells were grown in a tissue culture grade incubator held at 37° C. supplemented with 5% CO2. Cells were verified as mycoplasma negative via the e-Myco Mycoplasma PCR Detection Kit (Bulldog Bio #25233).
MitoTox screen conditions. 293T or PPTC7 knockout 293T cells were split and plated in 24 well plates at 7.5×10^4 cells per well. Cells were allowed to adhere overnight, and media was replaced with fresh DMEM or HPLM for a total of 24 hours prior to collection of cells. Compound treatments were grouped into 6-hour or 24-hour incubations, with 6-hour compound treatments occurring in the last 6 hours of the 24-hour media change, and 24-hour compound treatments occurring for the entire 24 hours of media treatment. Compounds used for 6 hours include antimycin A (5 μM final [c], Sigma #A8674), rotenone (5 μM final [c], Sigma #R8875), oligomycin (2.5 μM final [c], Sigma #04876), CCCP (10 μM final [c], Sigma #C2759), valinomycin (1 μM final [c], Sigma #V0627) and CDDO (2.5 μM final [c], Cayman Chemical #11883)). Compounds used for 24 hours include doxycycline (10 μg/ml final [c], VWR #75844-668) and Deferoxamine (DFO, 100 μM final [c], Sigma #D9533). One compound, 4-nitrobenzoate (4-NB, 1 mM final [c], Sigma #461091), requires 6+ days for efficacy (Forsman et al., Nature Chemical Biology, 6, 515-517 (2010)), and thus cells were treated with this compound for 5 days before being split to 7.5×10^4 cells per well and grouped with the 24 hour incubations. Control, untreated 293T cells were split and harvested with both the 6-hour and 24-hour compound treatment sets. All conditions were plated and collected in 3 replicate wells. […]

Compound: N#CC(C#N)=NNc1cccc(Cl)c1 [CCCP]
- proteome perturbation (UMAP of proteotypes) in relation to 6 h controls: produced more (and comparable) proteome rearrangement

Compound: CC1(C)CC[C@]2(C(=O)O)CC[C@]3(C)[C@H](C(=O)C=C4[C@@]5(C)C=C(C#N)C(=O)C(C)(C)[C@@H]5CC[C@]43C)[C@@H]2C1 [CDDO]
- proteome perturbation (UMAP of proteotypes) in relation to 6 h controls: media dependent

Compound: CC(C)[C@@H]1NC(=O)[C@H](C)OC(=O)[C@@H](C(C)C)NC(=O)[C@@H](C(C)C)OC(=O)[C@H](C(C)C)NC(=O)[C@H](C)OC(=O)[C@@H](C(C)C)NC(=O)[C@@H](C(C)C)OC(=O)[C@H](C(C)C)NC(=O)[C@H](C)OC(=O)[C@@H](C(C)C)NC(=O)[C@@H](C(C)C)OC1=O [Valinomycin, valinomycin]
- proteome perturbation (UMAP of proteotypes) in relation to 6 h controls: induced the most profound proteome perturbation relative to controls

Compound: CC[C@H]1/C=C/C=C/C[C@@H](C)[C@H](O)[C@@](C)(O)C(=O)[C@@H](C)[C@H](O)[C@@H](C)C(=O)[C@@H](C)[C@H](O)[C@@H](C)/C=C/C(=O)O[C@@H]2[C@H](C)[C@H](CC1)O[C@]1(CC[C@H](C)[C@H](C[C@@H](C)O)O1)[C@H]2C [oligomycin]
- proteome perturbation (UMAP of proteotypes) in relation to 6 h controls: produced more (and comparable) proteome rearrangement

Compound: C=C(C)[C@H]1Cc2c(ccc3c2O[C@@H]2COc4cc(OC)c(OC)cc4[C@@H]2C3=O)O1 [rotenone]
- proteome perturbation (UMAP of proteotypes) in relation to 6 h controls: most similar

Compound: antimycin A
- proteome perturbation (UMAP of proteotypes) in relation to 6 h controls: most similar
